Assay results as given in the supplement of paper PMC10307832.

How the values were obtained:
Experiment in all cases: relative viability (nuclei count vs DMSO), 5 days (fraction); higher = more cells survive
Tosedostat + Phenformin = compound: CC(C)C[C@@H](C(=O)N[C@H](C(=O)OC1CCCC1)c1ccccc1)[C@H](O)C(=O)NO [Tosedostat] + N=C(N)NC(=N)NCCc1ccccc1 [Phenformin] (partner 250 µM)
In short: (§1)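 Values are medians from duplicate plates. Each reflects relative viability, defined as the nuclei count of treated wells over that of vehicle wells. Lung cancer cell lines in 1536-well plates were pin-tool dosed one day after seeding with one drug alone or with a fixed anchor-drug dose plus five library-drug doses (not always all listed) in √10 steps, then fixed, stained and imaged at 4× after 5 days.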

[1] = compound: CC1=NN=C(O1)C2=NN=C(C=C2)N3CCC(CC3)OC4=C(C=CC(=C4)F)Cl + O=C(CCCCCCC(=O)Nc1ccccc1)NO [Vorinostat] (partner 1 µM)
In short: as §1

Tosedostat + Trametinib = compound: CC(C)C[C@@H](C(=O)N[C@H](C(=O)OC1CCCC1)c1ccccc1)[C@H](O)C(=O)NO [Tosedostat] + CC(=O)Nc1cccc(-n2c(=O)n(C3CC3)c(=O)c3c(Nc4ccc(I)cc4F)n(C)c(=O)c(C)c32)c1 [Trametinib] (partner 0.02 µM)
In short: as §1

Tosedostat + Alpelisib = compound: CC(C)C[C@@H](C(=O)N[C@H](C(=O)OC1CCCC1)c1ccccc1)[C@H](O)C(=O)NO [Tosedostat] + Cc1nc(NC(=O)N2CCC[C@H]2C(N)=O)sc1-c1ccnc(C(C)(C)C(F)(F)F)c1 [Alpelisib] (partner 2 µM)
In short: as §1

NCI-H1915
relative viability (Tosedostat + Phenformin; first compound 0.02 µM): 0.374
relative viability (Tosedostat + Phenformin; first compound 0.06325 µM): 0.366
relative viability (Tosedostat + Phenformin; first compound 0.2 µM): 0.365
relative viability (Tosedostat + Phenformin; first compound 0.6325 µM): 0.35
relative viability (Tosedostat + Phenformin; first compound 2 µM): 0.358
relative viability ([1]; first compound 0.253 µM): 0.457
relative viability ([1]; first compound 0.8 µM): 0.219
relative viability ([1]; first compound 2.53 µM): 0.401
relative viability ([1]; first compound 8 µM): 0.325
relative viability (Tosedostat + Trametinib; first compound 0.02 µM): 0.295
relative viability (Tosedostat + Trametinib; first compound 0.06325 µM): 0.313
relative viability (Tosedostat + Trametinib; first compound 0.2 µM): 0.292
relative viability (Tosedostat + Trametinib; first compound 0.6325 µM): 0.3
relative viability (Tosedostat + Trametinib; first compound 2 µM): 0.283
relative viability (Tosedostat + Alpelisib; first compound 0.02 µM): 1.1
relative viability (Tosedostat + Alpelisib; first compound 0.06325 µM): 1.05
relative viability (Tosedostat + Alpelisib; first compound 0.2 µM): 1.04
relative viability (Tosedostat + Alpelisib; first compound 0.6325 µM): 1.07
relative viability (Tosedostat + Alpelisib; first compound 2 µM): 0.907

NCI-H1944
relative viability (Tosedostat + Phenformin; first compound 0.02 µM): 0.21
relative viability (Tosedostat + Phenformin; first compound 0.06325 µM): 0.194
relative viability (Tosedostat + Phenformin; first compound 0.2 µM): 0.217
relative viability (Tosedostat + Phenformin; first compound 0.6325 µM): 0.196
relative viability (Tosedostat + Phenformin; first compound 2 µM): 0.211
relative viability ([1]; first compound 0.253 µM): 0.349
relative viability ([1]; first compound 0.8 µM): 0.329
relative viability ([1]; first compound 2.53 µM): 0.427
relative viability ([1]; first compound 8 µM): 0.393
relative viability (Tosedostat + Trametinib; first compound 0.02 µM): 0.422
relative viability (Tosedostat + Trametinib; first compound 0.06325 µM): 0.396
relative viability (Tosedostat + Trametinib; first compound 0.2 µM): 0.4
relative viability (Tosedostat + Trametinib; first compound 0.6325 µM): 0.395
relative viability (Tosedostat + Trametinib; first compound 2 µM): 0.422
relative viability (Tosedostat + Alpelisib; first compound 0.02 µM): 0.929
relative viability (Tosedostat + Alpelisib; first compound 0.06325 µM): 0.811
relative viability (Tosedostat + Alpelisib; first compound 0.2 µM): 0.817
relative viability (Tosedostat + Alpelisib; first compound 0.6325 µM): 0.742
relative viability (Tosedostat + Alpelisib; first compound 2 µM): 0.818

NCI-H1975
relative viability (Tosedostat + Phenformin; first compound 0.02 µM): 0.4
relative viability (Tosedostat + Phenformin; first compound 0.06325 µM): 0.401
relative viability (Tosedostat + Phenformin; first compound 0.2 µM): 0.412
relative viability (Tosedostat + Phenformin; first compound 0.6325 µM): 0.342
relative viability (Tosedostat + Phenformin; first compound 2 µM): 0.375
relative viability ([1]; first compound 0.253 µM): 0.606
relative viability ([1]; first compound 0.8 µM): 0.643
relative viability ([1]; first compound 2.53 µM): 0.629
relative viability ([1]; first compound 8 µM): 0.619
relative viability (Tosedostat + Trametinib; first compound 0.02 µM): 0.35
relative viability (Tosedostat + Trametinib; first compound 0.06325 µM): 0.401
relative viability (Tosedostat + Trametinib; first compound 0.2 µM): 0.453
relative viability (Tosedostat + Trametinib; first compound 0.6325 µM): 0.359
relative viability (Tosedostat + Trametinib; first compound 2 µM): 0.344
relative viability (Tosedostat + Alpelisib; first compound 0.02 µM): 0.658
relative viability (Tosedostat + Alpelisib; first compound 0.06325 µM): 0.602
relative viability (Tosedostat + Alpelisib; first compound 0.2 µM): 0.537
relative viability (Tosedostat + Alpelisib; first compound 0.6325 µM): 0.473
relative viability (Tosedostat + Alpelisib; first compound 2 µM): 0.495

NCI-H1993
relative viability (Tosedostat + Phenformin; first compound 0.02 µM): 0.514
relative viability (Tosedostat + Phenformin; first compound 0.06325 µM): 0.507
relative viability (Tosedostat + Phenformin; first compound 0.2 µM): 0.459
relative viability (Tosedostat + Phenformin; first compound 0.6325 µM): 0.497
relative viability (Tosedostat + Phenformin; first compound 2 µM): 0.499
relative viability ([1]; first compound 0.253 µM): 0.681
relative viability ([1]; first compound 0.8 µM): 0.763
relative viability ([1]; first compound 2.53 µM): 0.766
relative viability ([1]; first compound 8 µM): 0.762
relative viability (Tosedostat + Trametinib; first compound 0.02 µM): 0.501
relative viability (Tosedostat + Trametinib; first compound 0.06325 µM): 0.61
relative viability (Tosedostat + Trametinib; first compound 0.2 µM): 0.535
relative viability (Tosedostat + Trametinib; first compound 0.6325 µM): 0.498
relative viability (Tosedostat + Trametinib; first compound 2 µM): 0.504
relative viability (Tosedostat + Alpelisib; first compound 0.02 µM): 0.61
relative viability (Tosedostat + Alpelisib; first compound 0.06325 µM): 0.688
relative viability (Tosedostat + Alpelisib; first compound 0.2 µM): 0.843
relative viability (Tosedostat + Alpelisib; first compound 0.6325 µM): 0.561
relative viability (Tosedostat + Alpelisib; first compound 2 µM): 0.588

NCI-H2009
relative viability (Tosedostat + Phenformin; first compound 0.02 µM): 0.562
relative viability (Tosedostat + Phenformin; first compound 0.06325 µM): 0.477
relative viability (Tosedostat + Phenformin; first compound 0.2 µM): 0.477
relative viability (Tosedostat + Phenformin; first compound 0.6325 µM): 0.468
relative viability (Tosedostat + Phenformin; first compound 2 µM): 0.419
relative viability ([1]; first compound 0.253 µM): 0.428
relative viability ([1]; first compound 0.8 µM): 0.343
relative viability ([1]; first compound 2.53 µM): 0.422
relative viability ([1]; first compound 8 µM): 0.36
relative viability (Tosedostat + Trametinib; first compound 0.02 µM): 0.248
relative viability (Tosedostat + Trametinib; first compound 0.06325 µM): 0.325
relative viability (Tosedostat + Trametinib; first compound 0.2 µM): 0.321
relative viability (Tosedostat + Trametinib; first compound 0.6325 µM): 0.293
relative viability (Tosedostat + Trametinib; first compound 2 µM): 0.276
relative viability (Tosedostat + Alpelisib; first compound 0.02 µM): 1.24
relative viability (Tosedostat + Alpelisib; first compound 0.06325 µM): 1.14
relative viability (Tosedostat + Alpelisib; first compound 0.2 µM): 1.12
relative viability (Tosedostat + Alpelisib; first compound 0.6325 µM): 1.05
relative viability (Tosedostat + Alpelisib; first compound 2 µM): 0.955

NCI-H2023
relative viability (Tosedostat + Phenformin; first compound 0.02 µM): 0.397
relative viability (Tosedostat + Phenformin; first compound 0.06325 µM): 0.38
relative viability (Tosedostat + Phenformin; first compound 0.2 µM): 0.382
relative viability (Tosedostat + Phenformin; first compound 0.6325 µM): 0.351
relative viability (Tosedostat + Phenformin; first compound 2 µM): 0.359
relative viability ([1]; first compound 0.253 µM): 0.357
relative viability ([1]; first compound 0.8 µM): 0.268
relative viability ([1]; first compound 2.53 µM): 0.309
relative viability ([1]; first compound 8 µM): 0.322
relative viability (Tosedostat + Trametinib; first compound 0.02 µM): 0.607
relative viability (Tosedostat + Trametinib; first compound 0.06325 µM): 0.496
relative viability (Tosedostat + Trametinib; first compound 0.2 µM): 0.465
relative viability (Tosedostat + Trametinib; first compound 0.6325 µM): 0.45
relative viability (Tosedostat + Trametinib; first compound 2 µM): 0.502
relative viability (Tosedostat + Alpelisib; first compound 0.02 µM): 0.571
relative viability (Tosedostat + Alpelisib; first compound 0.06325 µM): 0.558
relative viability (Tosedostat + Alpelisib; first compound 0.2 µM): 0.675
relative viability (Tosedostat + Alpelisib; first compound 0.6325 µM): 0.421
relative viability (Tosedostat + Alpelisib; first compound 2 µM): 0.483

NCI-H2085
relative viability (Tosedostat + Phenformin; first compound 0.02 µM): 0.55
relative viability (Tosedostat + Phenformin; first compound 0.06325 µM): 0.646
relative viability (Tosedostat + Phenformin; first compound 0.2 µM): 0.713
relative viability (Tosedostat + Phenformin; first compound 0.6325 µM): 0.673
relative viability (Tosedostat + Phenformin; first compound 2 µM): 0.682
relative viability ([1]; first compound 0.253 µM): 0.649
relative viability ([1]; first compound 0.8 µM): 0.557
relative viability ([1]; first compound 2.53 µM): 0.687
relative viability ([1]; first compound 8 µM): 0.58
relative viability (Tosedostat + Trametinib; first compound 0.06325 µM): 0.436
relative viability (Tosedostat + Trametinib; first compound 0.2 µM): 0.677
relative viability (Tosedostat + Trametinib; first compound 0.6325 µM): 0.403
relative viability (Tosedostat + Trametinib; first compound 2 µM): 0.637
relative viability (Tosedostat + Alpelisib; first compound 0.02 µM): 0.904
relative viability (Tosedostat + Alpelisib; first compound 0.06325 µM): 1.02
relative viability (Tosedostat + Alpelisib; first compound 0.2 µM): 1.06
relative viability (Tosedostat + Alpelisib; first compound 0.6325 µM): 0.936
relative viability (Tosedostat + Alpelisib; first compound 2 µM): 0.887

NCI-H2087
relative viability (Tosedostat + Phenformin; first compound 0.02 µM): 0.473
relative viability (Tosedostat + Phenformin; first compound 0.06325 µM): 0.413
relative viability (Tosedostat + Phenformin; first compound 0.2 µM): 0.329
relative viability (Tosedostat + Phenformin; first compound 0.6325 µM): 0.28
relative viability (Tosedostat + Phenformin; first compound 2 µM): 0.22
relative viability ([1]; first compound 0.253 µM): 0.242
relative viability ([1]; first compound 0.8 µM): 0.376
relative viability ([1]; first compound 2.53 µM): 0.408
relative viability ([1]; first compound 8 µM): 0.291
relative viability (Tosedostat + Trametinib; first compound 0.02 µM): 0.181
relative viability (Tosedostat + Trametinib; first compound 0.06325 µM): 0.17
relative viability (Tosedostat + Trametinib; first compound 0.2 µM): 0.172
relative viability (Tosedostat + Trametinib; first compound 0.6325 µM): 0.228
relative viability (Tosedostat + Trametinib; first compound 2 µM): 0.132
relative viability (Tosedostat + Alpelisib; first compound 0.02 µM): 1.21
relative viability (Tosedostat + Alpelisib; first compound 0.06325 µM): 1.08
relative viability (Tosedostat + Alpelisib; first compound 0.2 µM): 1.21
relative viability (Tosedostat + Alpelisib; first compound 0.6325 µM): 0.876
relative viability (Tosedostat + Alpelisib; first compound 2 µM): 0.91

NCI-H2126
relative viability (Tosedostat + Phenformin; first compound 0.02 µM): 0.492
relative viability (Tosedostat + Phenformin; first compound 0.06325 µM): 0.535
relative viability (Tosedostat + Phenformin; first compound 0.2 µM): 0.477
relative viability (Tosedostat + Phenformin; first compound 0.6325 µM): 0.489
relative viability (Tosedostat + Phenformin; first compound 2 µM): 0.462
relative viability ([1]; first compound 0.253 µM): 0.754
relative viability ([1]; first compound 0.8 µM): 0.651
relative viability ([1]; first compound 2.53 µM): 0.642
relative viability ([1]; first compound 8 µM): 0.631
relative viability (Tosedostat + Trametinib; first compound 0.02 µM): 0.493
relative viability (Tosedostat + Trametinib; first compound 0.06325 µM): 0.59
relative viability (Tosedostat + Trametinib; first compound 0.2 µM): 0.568
relative viability (Tosedostat + Trametinib; first compound 0.6325 µM): 0.584
relative viability (Tosedostat + Trametinib; first compound 2 µM): 0.481
relative viability (Tosedostat + Alpelisib; first compound 0.02 µM): 0.664
relative viability (Tosedostat + Alpelisib; first compound 0.06325 µM): 0.744
relative viability (Tosedostat + Alpelisib; first compound 0.2 µM): 0.757
relative viability (Tosedostat + Alpelisib; first compound 0.6325 µM): 0.774
relative viability (Tosedostat + Alpelisib; first compound 2 µM): 0.661
